Laboratory results published in PubChem BioAssay AID1996.
Values after ≈ are worked out from the molar mass of the structure shown.

Conditions: buffer; pH 7.4; 200.0 µM
`O=C(NCCc1ccc(Cl)cc1)C1CCN(c2ncccn2)CC1` gave a solubility kinetic of 6.7 µg/mL (≈ 19.4 µM).
With `Cc1cccc(NC(=S)NC2CCSc3ccccc32)c1` (centres undefined) the solubility kinetic was < 0.3 µg/mL.
In the case of `COc1ccc(C(=O)Nc2ccc(NC(=O)C(C)C)nc2)cc1`, the solubility kinetic is reported as 3.1 µg/mL (≈ 9.89 µM).
`CN1CCN(c2ccc(C(=O)NC3CCCCC3)cc2[N+](=O)[O-])CC1` gave a solubility kinetic of 49.7 µg/mL (≈ 143 µM).
With `Cc1ccc(OCc2nc(-c3ccccc3)no2)cc1` the solubility kinetic was 0.4 µg/mL (≈ 1.5 µM).
In the case of `O=C(COC(=O)c1ccc(F)c(S(=O)(=O)N2CCOCC2)c1)NCc1ccc(F)cc1`, the solubility kinetic is reported as > 68.2 µg/mL.
`Cc1ccc(S(N)(=O)=O)cc1NC(=O)C(c1ccccc1)c1ccccc1` showed a solubility kinetic of 37 µg/mL (≈ 97.2 µM).
Work on `N#Cc1ncn(-c2ccc(Oc3ccccc3)cc2)c1N` yielded a solubility kinetic of 4 µg/mL (≈ 14.5 µM).
With `CC(=O)Nc1ccc(CN2CCN(C3CCCC3)C(CCO)C2)cc1` (centres undefined) the solubility kinetic was > 51.8 µg/mL.
With `CCOP(=O)(OCC)C(Nc1ccc(F)cc1)c1ccccc1` (centres undefined) the solubility kinetic was > 50.6 µg/mL.
With `O=Cc1cn(CCOc2ccccc2)c2ccccc12` the solubility kinetic was 12.9 µg/mL (≈ 48.6 µM).
For `C=CCN(Cc1nc(-c2ccccc2)no1)C(=O)c1ccco1`, the solubility kinetic was 38.4 µg/mL (≈ 124 µM).
With `CCSc1ccccc1C(=O)NCc1cccnc1` the solubility kinetic was > 40.9 µg/mL.
`O=C(NC(=S)Nc1ccccc1[N+](=O)[O-])c1ccccc1Cl` showed a solubility kinetic of 1.2 µg/mL (≈ 3.57 µM).
`O=C(NCCCl)c1ccc(OCc2ccccc2)cc1Cl` gave a solubility kinetic of 37 µg/mL (≈ 114 µM).
Molecule `CN(Cc1nc2ccccc2c(=O)[nH]1)C(=O)c1cc2c(s1)CCCCC2` has a solubility kinetic of 4.8 µg/mL (≈ 13.1 µM).
With `Cc1ccccc1OCC(=O)OCC(=O)NCc1ccco1` the solubility kinetic was > 45.5 µg/mL.
With `CC1CCN(C(=O)c2ccc3c(c2)NC(=O)CN3)CC1` the solubility kinetic was > 41 µg/mL.
For `Cc1ccc(S(=O)(=O)Nc2nc(C)c(C)s2)cc1`, the solubility kinetic was 13.5 µg/mL (≈ 47.8 µM).
With `CC(=O)Nc1ccc(/C=C(\C#N)C(N)=O)cc1` the solubility kinetic was 16.8 µg/mL (≈ 73.3 µM).
`Cc1cc(C(=O)Nc2ccc(Br)cc2)c2ccccc2n1` gave a solubility kinetic of 0.5 µg/mL (≈ 1.47 µM).
With `Cc1ccc(C2Nc3ccccc3C(=O)N2CCN2CCNC2=O)cc1` (centres undefined) the solubility kinetic was > 52.6 µg/mL.
With `CC12CC3CC(C)(C1)CC(C(=O)NCc1ccncc1)(C3)C2` the solubility kinetic was > 44.8 µg/mL.
Work on `CSc1ncccc1C(=O)OCC(=O)Nc1cccc(S(=O)(=O)N2CCOCC2)c1` yielded a solubility kinetic of 34.7 µg/mL (≈ 76.9 µM).
For `O=c1[nH]c(=S)n(-c2ccccc2F)c(O)c1C=NCCN1CCNCC1`, the solubility kinetic was 55.3 µg/mL (≈ 147 µM).
`CC(=O)c1ccc(NC(=O)C(C)NCc2ccc(Cl)cc2)cc1` (centres undefined) showed a solubility kinetic of 42.9 µg/mL (≈ 130 µM).
With `Cc1ccc(S(=O)(=O)N2CCCC(N3CCOCC3)C2)cc1Cl` (centres undefined) the solubility kinetic was > 53.8 µg/mL.
`Cc1cccc(N2CCN(C(=O)c3ccc4[nH]c(C)c(C)c4c3)CC2)c1C` gave a solubility kinetic of 4.2 µg/mL (≈ 11.6 µM).
In the case of `CCC(CC)C(=O)Nc1ccc(S(=O)(=O)Nc2nccs2)cc1`, the solubility kinetic is reported as > 53 µg/mL.
Work on `CCOc1ccc(/C=C(\C#N)C(=O)NC2CC2)c(OCC)c1` yielded a solubility kinetic of 4.8 µg/mL (≈ 16 µM).
`O=C(CC(=O)Nc1ccc(F)cc1)Nc1ccc(F)cc1` showed a solubility kinetic of 3.1 µg/mL (≈ 10.7 µM).
In the case of `CCOc1ccccc1NC(=O)COC(=O)C1CCC(=O)N1` (centres undefined), the solubility kinetic is reported as > 45.9 µg/mL.
`Nc1nc(Nc2cccc(Cl)c2)nc(NCc2ccco2)c1[N+](=O)[O-]` gave a solubility kinetic of 3 µg/mL (≈ 8.32 µM).
`CCc1ccccc1NC(=S)N(CCN(C)C)Cc1cccs1` showed a solubility kinetic of 45.6 µg/mL (≈ 131 µM).
For `CN(C)CC(C)(C)CNc1ccc(S(=O)(=O)N2CCCC2)cn1`, the solubility kinetic was > 51.1 µg/mL.
Work on `COC(=O)N1CCN(c2ccc(C)c(C)c2)CC1` yielded a solubility kinetic of 32.1 µg/mL (≈ 129 µM).
For `CC(C)(C)CN1CCN(CCCc2ccccc2)C(CCO)C1` (centres undefined), the solubility kinetic was 43.5 µg/mL (≈ 137 µM).
Molecule `CCNCC(O)c1cccc(O)c1` (centres undefined) has a solubility kinetic of 18.9 µg/mL (≈ 104 µM).
Work on `Cc1ccc(C)c(OCCC(=O)OCC(=O)NCc2ccc(F)cc2)c1` yielded a solubility kinetic of 3.7 µg/mL (≈ 10.3 µM).
In the case of `COc1ccc(-c2cc(C(=O)Nc3cccc(Cl)c3)no2)cc1`, the solubility kinetic is reported as < 0.4 µg/mL.
Molecule `Cc1cc(NC(=O)COC(=O)C2=COCCO2)c([N+](=O)[O-])cc1C` has a solubility kinetic of 3.7 µg/mL (≈ 11 µM).
With `COc1ccc(CCNC(=O)COC(=O)/C=C/c2ccc(OC)cc2OC)cc1` the solubility kinetic was 5.1 µg/mL (≈ 12.8 µM).
Work on `C=CCOC(=O)c1ccc(N2CCN(c3ccccc3)CC2)nc1` yielded a solubility kinetic of 0.9 µg/mL (≈ 2.78 µM).
For `CCC(C)NC(=O)c1cc2c(=O)n(CC)c3ccccc3c2s1` (centres undefined), the solubility kinetic was 2.3 µg/mL (≈ 7 µM).
For `O=C(O)c1csc(-c2ccc(Cl)cc2)n1`, the solubility kinetic was > 36 µg/mL.
`Cc1ccc(CN2CCc3[nH]c(=S)[nH]c(=O)c3C2)cc1` showed a solubility kinetic of 10.5 µg/mL (≈ 36.5 µM).
With `CCNC(=O)C(C)Oc1ccc(Cl)cc1Cl` (centres undefined) the solubility kinetic was > 39.3 µg/mL.
For `Cc1cccc(OC(C)C(=O)N2CCCN(C)CC2)c1C` (centres undefined), the solubility kinetic was > 43.6 µg/mL.
In the case of `CSc1ccccc1C(=O)C1CCCN(C(=O)NC(C)C)C1` (centres undefined), the solubility kinetic is reported as 42.1 µg/mL (≈ 131 µM).
For `COc1ccc(C(=O)CN2C(=O)c3ccccc3C2=O)c(OC)c1`, the solubility kinetic was 1.3 µg/mL (≈ 4 µM).
For `O=C(COC(=O)C1CCC1)NCc1ccc(F)cc1`, the solubility kinetic was > 39.8 µg/mL.
`CS(=O)(=O)c1ccc2nc(NC(=O)Nc3ccccc3F)sc2c1` showed a solubility kinetic of 0.8 µg/mL (≈ 2.19 µM).
For `CN1C(=O)/C(=C\c2ccc(N3CCCCCC3)cc2)C(=O)NC1=S`, the solubility kinetic was 2.7 µg/mL (≈ 7.86 µM).
In the case of `O=C(COC(=O)CCC1CCCC1)NCc1ccc(Cl)cc1`, the solubility kinetic is reported as < 0.7 µg/mL.
For `CCOC(=O)c1c(C)nc(C)c(C(=O)OCC)c1-c1ccco1`, the solubility kinetic was > 47.6 µg/mL.
`O=[N+]([O-])c1ccc(NC(=S)N2CCc3ccccc32)cc1` showed a solubility kinetic of 3.9 µg/mL (≈ 13 µM).
In the case of `CC(C)Oc1ccc(CC2(CCc3ccncc3)C(=O)NC(=O)NC2=O)cc1`, the solubility kinetic is reported as 7.7 µg/mL (≈ 20.2 µM).
With `O=C(CCSCc1ccc(Cl)cc1)NCc1cccnc1` the solubility kinetic was 48 µg/mL (≈ 150 µM).
In the case of `Cc1cccc(C)c1OC(=O)CN1C(=O)c2ccccc2C1=O`, the solubility kinetic is reported as 0.9 µg/mL (≈ 2.91 µM).
